Measurements taken from the supplement of paper PMC10307832.

Assays:
Experiment in all cases: relative viability (nuclei count vs DMSO), 5 days (fraction); higher = more cells survive
[1] = compound: CN(C)C/C=C/C(=O)Nc1cc2c(Nc3ccc(F)c(Cl)c3)ncnc2cc1O[C@H]1CCOC1 [Afatinib] + CC(=O)c1c(C)c2cnc(Nc3ccc(N4CCNCC4)cn3)nc2n(C2CCCC2)c1=O [Palbociclib] (partner 0.5 µM)
How it was run: (§1)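 A single step with final 0.05% Triton X-100, 1% formaldehyde and 1 ug/ml Hoechst fixed the cells and stained nuclei 5 days after treatment. Lung cancer cell lines in 1536-well plates had been treated by pin tool the day after seeding with one drug alone or a fixed anchor-drug dose plus five library-drug doses (not always all listed) in √10 steps, and nuclei were counted on 4× images. Relative viability is the ratio of nuclei in treated wells to nuclei in vehicle wells, taken as the median of duplicate plates.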

[2] = compound: CN(C)C/C=C/C(=O)Nc1cc2c(Nc3ccc(F)c(Cl)c3)ncnc2cc1O[C@H]1CCOC1 [Afatinib] + CC(C)C[C@H](NC(=O)[C@H](Cc1ccccc1)NC(=O)c1cnccn1)B(O)O [Bortezomib] (partner 0.002 µM)
How it was run: as §1

[3] = compound: CN(C)C/C=C/C(=O)Nc1cc2c(Nc3ccc(F)c(Cl)c3)ncnc2cc1O[C@H]1CCOC1 [Afatinib] + COc1cc2c(Oc3ccc(NC(=O)C4(C(=O)Nc5ccc(F)cc5)CC4)cc3F)ccnc2cc1OCCCN1CCOCC1 [Foretinib] (partner 0.25 µM)
How it was run: as §1

[4] = compound: CN(C)C/C=C/C(=O)Nc1cc2c(Nc3ccc(F)c(Cl)c3)ncnc2cc1O[C@H]1CCOC1 [Afatinib] + CS(=O)(=O)N1CCN(Cc2cc3nc(-c4cccc5[nH]ncc45)nc(N4CCOCC4)c3s2)CC1 [Pictilisib] (partner 1 µM)
How it was run: as §1

Row | Cell Line | relative viability ([1]; first compound 0.005 µM) | relative viability ([1]; first compound 0.01581 µM) | relative viability ([1]; first compound 0.05 µM) | relative viability ([1]; first compound 0.1581 µM) | relative viability ([1]; first compound 0.5 µM) | relative viability ([2]; first compound 0.005 µM) | relative viability ([2]; first compound 0.01581 µM) | relative viability ([2]; first compound 0.05 µM) | relative viability ([2]; first compound 0.1581 µM) | relative viability ([2]; first compound 0.5 µM) | relative viability ([3]; first compound 0.005 µM) | relative viability ([3]; first compound 0.01581 µM) | relative viability ([3]; first compound 0.05 µM) | relative viability ([3]; first compound 0.1581 µM) | relative viability ([3]; first compound 0.5 µM) | relative viability ([4]; first compound 0.005 µM) | relative viability ([4]; first compound 0.01581 µM) | relative viability ([4]; first compound 0.05 µM) | relative viability ([4]; first compound 0.1581 µM) | relative viability ([4]; first compound 0.5 µM)
1 | LCLC-103H | 0.452 | 0.495 | 0.443 | 0.436 | 0.485 | 1.01 | 1.09 | 1.05 | 0.929 | 1.12 | 0.832 | 0.814 | 0.734 | 0.834 | 0.846 | 0.621 | 0.572 | 0.642 | 0.62 | 0.482
2 | LOU-NH91 | 0.533 | 0.535 | 0.538 | 0.564 | 0.538 | 0.465 | 0.416 | 0.48 | 0.519 | 0.502 | 0.541 | 0.524 | 0.592 | 0.497 | 0.568 | 0.492 | 0.49 | 0.541 | 0.498 | 0.501
3 | LU99A | 0.451 | 0.39 | 0.425 | 0.36 | 0.391 | 1.19 | 1.07 | 1.08 | 1.08 | 1.02 | 0.957 | 0.818 | 0.831 | 0.77 | 0.785 | 0.345 | 0.395 | 0.308 | 0.349 | 0.295
4 | LXF-289 | 0.604 | 0.561 | 0.553 | 0.486 | 0.533 | 1.04 | 0.906 | 0.947 | 0.905 | 0.936 | 0.983 | 0.977 | 0.905 | 0.91 | 0.884 | 0.829 | 0.701 | 0.695 | 0.706 | 0.777
5 | NCI-H23 | 0.561 | 0.469 | 0.482 | 0.486 | 0.448 | 0.951 | 0.948 | 0.995 | 0.901 | 0.904 | 0.99 | 1.02 | 1.02 | 0.847 | 0.951 | 0.543 | 0.52 | 0.501 | 0.424 | 0.398
6 | NCI-H322M | 0.467 | 0.434 | 0.394 | 0.358 | 0.378 | 0.721 | 1.03 | 0.663 | 0.563 | 0.512 | 0.765 | 0.566 | 0.493 | 0.535 | 0.449 | 0.441 | 0.396 | 0.351 | 0.327 | 0.279
7 | NCI-H441 | 0.234 | 0.231 | 0.163 | 0.183 | 0.207 | 0.59 | 0.642 | 0.864 | 0.632 | 0.313 | 1.22 | 0.837 | 0.987 | 0.742 | 0.75 | 0.431 | 0.504 | 0.436 | 0.481 | 0.31
8 | NCI-H460 | 0.165 | 0.175 | 0.237 | 0.184 | 0.242 | 1.34 | 1.1 | 1.09 | 1.1 | 0.997 | 0.987 | 0.895 | 0.943 | 1.07 | 0.978 | 0.371 | 0.39 | 0.339 | 0.35 | 0.343
9 | NCI-H520 | 0.245 | 0.241 | 0.229 | 0.219 | 0.229 | 0.712 | 0.634 | 0.748 | 0.579 | 0.614 | 0.83 | 0.656 | 0.698 | 0.812 | 0.744 | 0.353 | 0.304 | 0.208 | 0.232 | 0.233
10 | NCI-H647 | 0.37 | 0.335 | 0.385 | 0.368 | 0.312 | 0.921 | 0.808 | 1.08 | 1.11 | 1 | 1.21 | 1.1 | 1.21 | 1.11 | 1.14 | 0.407 |  | 0.457 | 0.459 | 0.453
11 | NCI-H650 | 0.343 | 0.34 | 0.395 | 0.331 | 0.336 | 1.07 | 0.802 | 0.957 | 0.949 | 0.597 | 1.13 | 0.997 | 1.06 | 1.02 | 0.998 | 0.889 | 0.793 | 1 | 1.09 | 0.924
12 | NCI-H661 | 0.387 | 0.339 | 0.347 | 0.34 | 0.337 | 0.877 | 0.751 | 0.662 | 0.444 | 0.415 | 1.06 | 0.874 | 0.738 | 0.75 | 0.625 | 0.386 | 0.301 | 0.318 | 0.313 | 0.249
13 | NCI-H727 | 0.586 | 0.637 | 0.6 | 0.506 | 0.544 | 0.85 | 0.732 | 0.825 | 0.863 | 0.804 | 0.82 | 0.588 | 0.762 | 0.709 | 0.752 | 0.315 | 0.401 | 0.306 | 0.279 | 0.281
14 | NCI-H838 | 0.216 | 0.227 | 0.242 | 0.214 | 0.233 | 0.869 | 0.958 | 1.01 | 0.667 | 1.05 | 1.07 | 1.01 | 1.11 | 1.02 | 1.26 | 0.441 | 0.462 | 0.453 | 0.497 | 0.524
15 | NCI-H1355 | 0.397 | 0.338 | 0.351 | 0.274 | 0.315 | 1.26 | 1.16 | 1.29 | 1.03 | 1.02 | 0.947 | 0.636 | 0.824 | 0.773 | 0.751 | 0.39 | 0.467 | 0.482 | 0.36 | 0.21
16 | NCI-H1437 | 0.305 | 0.294 | 0.281 | 0.31 | 0.341 | 0.941 | 0.52 | 0.446 | 0.496 | 0.554 | 1.26 | 1.27 | 1.24 | 1.31 | 1.33 | 0.489 | 0.407 | 0.378 | 0.468 | 0.471
17 | NCI-H1650 | 0.299 | 0.257 | 0.305 | 0.347 | 0.269 | 0.222 |  | 0.204 | 0.241 | 0.207 | 0.871 |  | 0.9 | 0.671 | 0.774 | 0.589 |  | 0.553 | 0.487 | 0.545
18 | NCI-H1651 | 0.561 | 0.508 | 0.501 | 0.495 | 0.459 | 1.08 | 0.912 | 0.926 | 1.02 | 0.884 | 0.825 | 0.636 | 0.822 | 0.748 | 0.746 | 0.58 | 0.533 | 0.546 | 0.553 | 0.449
19 | NCI-H1666 | 0.656 | 0.617 | 0.645 | 0.673 | 0.688 | 0.712 | 0.758 | 0.567 |  | 0.8 | 0.932 | 0.812 | 0.761 | 0.725 | 0.774 | 0.329 | 0.252 | 0.344 |  | 0.345
20 | NCI-H1734 | 0.369 | 0.34 | 0.298 | 0.339 | 0.319 | 1.08 | 0.816 | 0.895 | 0.921 | 0.922 | 0.926 | 0.785 | 0.83 | 0.73 | 0.924 | 0.479 | 0.467 | 0.486 | 0.438 | 0.416
21 | NCI-H1755 | 0.463 | 0.438 | 0.441 | 0.456 | 0.433 | 0.995 | 0.925 | 0.927 | 0.934 | 1.03 | 0.947 | 0.937 | 0.964 | 0.901 | 0.897 | 0.433 | 0.435 | 0.41 | 0.368 | 0.358
22 | NCI-H1915 | 0.564 | 0.539 | 0.526 | 0.506 | 0.491 | 0.994 | 1 | 0.938 | 1 | 0.952 | 1.19 | 1.05 | 1.11 | 1.02 | 0.974 | 1.05 | 0.993 | 0.951 | 0.912 | 0.855
23 | NCI-H1975 | 0.72 | 0.469 | 0.472 | 0.253 | 0.21 | 0.358 | 0.345 | 0.309 | 0.171 | 0.189 | 0.952 | 0.907 | 0.872 | 0.353 | 0.303 | 0.293 | 0.185 | 0.164 | 0.17 | 0.0947
24 | NCI-H1993 | 0.532 | 0.571 | 0.539 | 0.538 | 0.577 | 0.891 | 0.633 | 0.678 | 0.692 | 0.706 | 0.551 | 0.598 | 0.6 | 0.675 | 0.618 | 0.93 | 0.937 | 0.983 | 1.03 | 0.868
25 | NCI-H2009 | 0.238 | 0.25 | 0.253 | 0.231 | 0.247 | 1.09 | 1.01 | 0.991 | 1 | 1.03 | 1.22 | 1.19 | 1.31 | 1.21 | 1.33 | 0.875 | 0.822 | 0.95 | 0.786 | 0.74
26 | NCI-H2023 | 0.382 | 0.333 | 0.284 | 0.265 | 0.275 | 0.954 | 0.884 | 0.984 | 0.899 | 1.14 | 0.811 | 0.892 | 0.42 | 0.333 | 0.562 | 0.248 | 0.233 | 0.261 | 0.216 | 0.239
27 | NCI-H2085 | 0.445 | 0.448 | 0.42 | 0.36 | 0.419 | 1.01 | 0.902 | 0.932 | 0.894 | 0.975 | 0.888 | 0.773 | 0.791 | 0.59 | 0.628 | 0.486 | 0.438 | 0.459 | 0.494 | 0.435
